Data set [1] concerns L02. As to the kind of experiment: Cytoprotection against H2O2 induced cytotoxicity in human LO2 cells assessed as increase in cell viability preincubated for 24 hrs followed by H2O2 addition measured after 6 hrs by CCK-8 assay. Type of data set: functional, cell-based. (In general: Tetrazolium dyes change colour on reduction, which living cells bring about.)
The subject of data set [2] is L02. Put plainly: Cytoprotection against H2O2 induced cytotoxicity in human LO2 cells assessed as decrease in MDA level at 100 mmol after 15 mins by lipid oxidation assay. Type of data set: functional, cell-based.
Data set [3] concerns L02. Put plainly: Cytoprotection against APAP induced cytotoxicity in human LO2 cells assessed as decrease in MDA level at 100 mmol after 15 mins by lipid oxidation assay. Type of data set: functional, cell-based.
In data set [4] the test system is L02. As to the kind of experiment: Cytoprotection against APAP induced cytotoxicity in human LO2 cells assessed as increase in cell viability preincubated for 24 hrs followed by […] hrs by CCK-8 assay. Type of data set: functional, cell-based.
Data set [5] has as its system L02. As to the kind of experiment: Cytotoxicity against human LO2 cells assessed as reduction in cell viability after 24 hrs by CCK-8 assay. Type of data set: cell-based. To be noted: l02, 24 h.
Data set [6] is described as follows: Oral bioavailability in Sprague-Dawley rat at 20 mg/kg by LC-MS/MS analysis. Type of data set: ADME, organism-based. Particulars: in vivo.
Data set [7] can be described thus: Apparent permeability across apical to basolateral side in human Caco2 cells at 10 uM after 1.5 hrs by LC-MS/MS analysis. To be noted: Caco-2. Type of data set: ADME, cell-based. (In general: Passage across Caco-2 layers is used to estimate intestinal permeability.)
Data set [8] is described as follows: Apparent permeability across basolateral to apical side in human Caco2 cells at 10 uM after 1.5 hrs by LC-MS/MS analysis. Particulars: Caco-2. Type of data set: ADME, cell-based.
Data set [9] in a line: Efflux ratio of apparent permeability across basolateral to apical side over apical to basolateral side in human Caco2 cells at 10 uM after 1.5 hrs by LC-MS/MS analysis. Type of data set: ADME, cell-based. To be noted: Caco-2.
Data set [10] is described as follows: AUC in Sprague-Dawley rat at 10 mg/kg, iv or 20 mg/kg, po by LC-MS/MS analysis. Type of data set: ADME, organism-based. To be noted: in vivo.
Data set [11] is described as follows: Cmax in Sprague-Dawley rat at 10 mg/kg, iv or 20 mg/kg, po by LC-MS/MS analysis. Type of data set: ADME, organism-based. Particulars: in vivo.
The nature of data set [12]: Terminal half life in Sprague-Dawley rat at 20 mg/kg, po by LC-MS/MS analysis. Type of data set: ADME, organism-based. To be noted: in vivo, read-out: beta t1/2 (converted).
Data set [13] can be described thus: Oral bioavailability in human. Type of data set: ADME, organism-based. To be noted: in vivo.
Data set [14] is described as follows: Terminal half life in iv dosed human plasma. Particulars: read-out: beta t1/2 (converted). Type of data set: ADME, organism-based.
A short description of data set [15]: Drug excretion in iv dosed human. Particulars: in vivo, read-out: Drug excretion. Type of data set: ADME, organism-based.

Activity calls are given as the source filed them. The rule behind the calls is not given here. Some results are limits rather than exact numbers.

As for `COC(=O)[C@H](CSC)NC(C)=O`, the outcome in the data set with L02 [1] was inactive.
With `CSC[C@H](NC(=O)c1ccccc1)C(=O)NC1CCCCC1`, the outcome in the data set on L02 [1] was Active.
The same measure, in the same setting: in the case of `COC(=O)[C@H](CSC)NC(=O)c1ccccc1` it was “inactive”.
For `CCC(=O)N[C@@H](CSC)C(=O)NC`, in the data set with L02 [1], the result was Active.
Turning to `CNC(=O)[C@H](CSC)NC(=O)C1CCCCC1`, the result in the data set on L02 [2] and in the data set on L02 [1] was Active.
As to `CNC(=O)[C@H](CSC)NC(=O)c1ccccc1`, the result with L02 [2] was inactive. Besides, the result in the data set with L02 [1] was Active.
`CSC[C@H](NC(C)=O)C(=O)Nc1ccccc1`: the outcome in the data set on L02 [3], in the data set with L02 [2] and in the data set on L02 [1] was Active. In addition, in the data set on L02 [4], the outcome was inactive.
On to `CCC(=O)N[C@@H](CSC)C(=O)O`, for which the outcome with L02 [2] and in the data set with L02 [1] was Active.
Take `CSC[C@H](NC(=O)c1ccccc1)C(=O)OC(C)(C)C`: the Activity result in the data set on L02 [5] is “Toxic”. Besides, the outcome in the data set on L02 [1] was inactive.
On to `CSC[C@H](NC(=O)c1ccc(F)cc1)C(=O)O`, for which the outcome in the data set with L02 [2] and with L02 [1] was Active.
A word on the bioavailability: it is the share of a dose that reaches the circulation, judged against a reference dose that is usually intravenous. By Papp A→B is commonly meant the apparent permeability from the apical to the basolateral side of a cell layer. As a reminder, the Papp B→A is how fast a substance crosses the layer from the basolateral side. Usually efflux ratio stands for a quotient of directional permeabilities that is used to spot active efflux. Broadly, the AUC is the area under the concentration-time curve, a measure of exposure. The low end stands for low exposure, the high end for high exposure. Broadly, the Cmax is the peak of the concentration-time curve. In data set [6], `CSC[C@H](NC(C)=O)C(=O)NC1CCCCC1` returned a bioavailability of 52.8%. Moreover, the Papp A→B at 1.5 h, 10 µM in data set [7] stood at 19.7 ×10⁻⁶ cm/s. The result in the data set on L02 [3], in the data set with L02 [2], with L02 [4] and in the data set on L02 [1] was Active. Also, the Papp B→A at 1.5 h, 10 µM in data set [8] was determined as 21.8 ×10⁻⁶ cm/s. The efflux ratio at 1.5 h, 10 µM in data set [9] came to 1.11. In data set [10], the AUC was determined as 3080 ng·h/mL. This compound returned a Cmax in data set [11] of 2140 ng/mL. Moreover, the half-life in data set [12] is 5.62 h.
As to `COC(=O)[C@H](CSC)NC(=O)C1CCCCC1`, in the data set on L02 [1], the outcome was inactive.
With `CSC[C@H](NC(=O)c1ccc(F)cc1)C(=O)OC(C)(C)C`, in the data set on L02 [5], the Activity entry is “Toxic”. The result with L02 [1] was inactive.
In [13], `CC(=O)N[C@@H](CS)C(=O)O` [ACETYLCYSTEINE] gave a bioavailability of under 5%. Besides, the half-life in data set [14] is 5.6 h. For the same compound, the Papp A→B at 1.5 h, 10 µM in [7] was under 1.09 ×10⁻⁶ cm/s. The outcome in the data set with L02 [3] and in the data set on L02 [2] was Active. Also, the Papp B→A at 1.5 h, 10 µM in data set [8] is under 0.61 ×10⁻⁶ cm/s. For the same compound, the dose excreted in [15] was 30%.
With `CCC(=O)N[C@@H](CSC)C(=O)OC`, the result in the data set with L02 [1] was inactive.
For `CCC(=O)N[C@@H](CSC)C(=O)OC(C)(C)C`, the Activity entry in the data set on L02 [5] was “Toxic”. For the same compound, in the data set on L02 [1], the result was inactive.
With `CCC(=O)N[C@@H](CSC)C(=O)Nc1ccccc1`, the result in the data set with L02 [1] was Active.
As to `CSC[C@H](NC(=O)C1CCCCC1)C(=O)OC(C)(C)C`, the Activity result in the data set with L02 [5] was “Toxic”. Also, the result with L02 [1] was inactive.
As to `CCC(=O)N[C@@H](CSC)C(=O)NC1CCCCC1`, the outcome in the data set on L02 [3], in the data set on L02 [2], in the data set with L02 [4] and in the data set on L02 [1] was Active.
As to `CSC[C@H](NC(=O)C1CCCCC1)C(=O)O`, the outcome with L02 [2] and in the data set on L02 [1] was Active.
For the compound `CSC[C@H](NC(=O)c1ccccc1)C(=O)O`, the outcome in the data set with L02 [2] and in the data set with L02 [1] was Active.
As to `COC(=O)[C@H](CSC)NC(=O)c1ccc(F)cc1`, in the data set with L02 [1], the result was inactive.
Still for that read-out and setting: the same measure for `CSC[C@H](NC(=O)c1ccccc1)C(=O)Nc1ccccc1`: “Active”.
With `CSC[C@H](NC(C)=O)C(=O)OC(C)(C)C`, the Activity entry in the data set with L02 [5] is “Toxic”. Also, in the data set on L02 [1], the result was inactive.
Take `CSC[C@H](NC(C)=O)C(=O)O`: the outcome with L02 [2] and in the data set on L02 [1] was Active.

Source of the values: ChEMBL document CHEMBL4261569, “Identification of novel N-acetylcysteine derivatives for the treatment of hepatocellular injury” (Medchemcomm, 2017).
